In patent US9193695B2, “1, 2, 4-triazolone derivative and use thereof as an antagonist on the arginine-vasopressin 1B receptor” (TAISHO PHARMACEUTICAL CO., LTD., priority 2010, dated 2015) one finds IC50 data, which are given here for 20 compounds.

pIC50: −log10 of the molar value. Where a name gives a salt, the structure may show the parent alone.

For the assay, the target named is T1, Human V1b receptor (Homo sapiens, UniProt P47901).
T1 sequence (P47901 1-424): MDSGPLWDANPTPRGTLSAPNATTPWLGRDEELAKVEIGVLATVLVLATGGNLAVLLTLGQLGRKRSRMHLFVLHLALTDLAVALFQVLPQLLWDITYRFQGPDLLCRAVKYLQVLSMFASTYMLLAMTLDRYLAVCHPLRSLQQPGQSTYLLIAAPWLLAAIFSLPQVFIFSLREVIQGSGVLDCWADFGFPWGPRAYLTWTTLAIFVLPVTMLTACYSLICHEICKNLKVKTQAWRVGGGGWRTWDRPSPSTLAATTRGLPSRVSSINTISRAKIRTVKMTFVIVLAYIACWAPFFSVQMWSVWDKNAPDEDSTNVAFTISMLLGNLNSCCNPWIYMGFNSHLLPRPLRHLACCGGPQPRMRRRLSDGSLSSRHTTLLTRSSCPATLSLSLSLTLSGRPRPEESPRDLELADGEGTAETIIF
The assay is described as follows: Binding test for V1b receptor ([3H]AVP displacement, crude membrane preparation). On the set-up: expressed in transfected cells; host or cells: 293FT cells (Invitrogen), transient expression; crude membrane preparation. To be noted: [3H]AVP 0.4 to 1 nmol/L; membranes of 293FT cells transiently expressing human V1b receptor; room temperature, 60 minutes. Summed up:
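Crude membranes from 293FT cells transiently expressing human V1b, in 50 mmol/L Tris-HCl pH 7.4 with 10 mmol/L MgCl2 and 0.1% BSA, incubated with compound (0.01 nmol/L–1 μmol/L) and [3H]AVP (0.4–1 nmol/L) for 60 min at room temperature. Filter-bound radioactivity counted; 10 μmol/L unlabeled AVP defined 0%. IC50 from dose-response curve.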
`COc1cc(-c2nn(-c3ccc(CCN4CCN(C(C)=O)CC4)cc3)c(=O)n2CC(=O)NC(C)C)ccc1F` [Ca-26, 2-[1-{4-[2-(4-Acetylpiperazin-1-yl)ethyl]phenyl}-3-(4-fluoro-3-methoxyphenyl)-5-oxo-1,5-dihydro-4H-1,2,4-triazol-4-yl]-N-(propan-2-yl)acetamide trifluoroacetate]: the pIC50 is 6.00 to 7.00.
Then `COc1cc(-c2nn(-c3ccc(CCN4CCC(C)(O)CC4)cc3)c(=O)n2CC(=O)NC(C)C)ccc1F` [Ca-27, 2-[3-(4-Fluoro-3-methoxyphenyl)-1-{4-[2-(4-hydroxy4-methylpiperidin-1-yl)ethyl]phenyl}-5-oxo-1,5-dihydro-4H-1,2,4-triazol-4-yl]-N-(propan-2-yl)acetamide trifluoroacetate], with 6.00 to 7.00; and `COc1cc(-c2nn(-c3ccc(CCN4C5CCC4CC(O)C5)cn3)c(=O)n2CC(=O)NC(C)C)ccc1F` (centres unmarked) [Cb-4, 2-[3-(4-Fluoro-3-methoxyphenyl)-1-{5-[2-(3-hydroxy-8-azabicyclo[3.2.1]oct-8-yl)ethyl]pyridin-2-yl}-5-oxo-1,5-dihydro-4H-1,2,4-triazol-4-yl]-N-(propan-2-yl)acetamide], with 8.07.
Compound `COc1cc(-c2nn(-c3ccc(CCN4C5CCC4COC5)cn3)c(=O)n2CC(=O)NC(C)C)ccc1F` [Cb-5, 2-[3-(4-Fluoro-3-methoxyphenyl)-1-{5-[2-(3-oxa-8-azabicyclo[3.2.1]oct-8-yl)ethyl]pyridin-2-yl}-5-oxo-1,5-dihydro-4H-1,2,4-triazol-4-yl]-N-(propan-2-yl)acetamide] had a negative logarithm of the IC50 (pIC50) of 7.80.
The value for `COc1cc(-c2nn(-c3ncc(CCN4CCOCC4)cn3)c(=O)n2CC(=O)NC(C)C)ccc1F` [Cd-1, 2-[3-(4-Fluoro-3-methoxyphenyl)-1-{5-[2-(morpholin-4-yl)ethyl]pyrimidin-2-yl}-5-oxo-1,5-dihydro-4H-1,2,4-triazol-4-yl]-N-(propan-2-yl)acetamide] was 6.78.
The compound `COc1cc(-c2nn(-c3ccc(CC(C)N4C5CCC4COC5)cc3)c(=O)n2CC(=O)NC(C)C)ccc1F` (centres unmarked) [Cd-2, 2-[3-(4-Fluoro-3-methoxyphenyl)-1-{4-[2-(3-oxa-8-azabicyclo[3.2.1]oct-8-yl)propyl]phenyl}-5-oxo-1,5-dihydro-4H-1,2,4-triazol-4-yl]-N-(propan-2-yl)acetamide] showed a negative-log IC50 (pIC50) of 9.29.
Then `COc1cc(-c2nn(-c3ccc(CC(C)N4C5CCC4COC5)cn3)c(=O)n2CC(=O)NC(C)C)ccc1F` (centres unmarked) [Cd-3, 2-[3-(4-Fluoro-3-methoxyphenyl)-1-{5-[2-(3-oxa-8-azabicyclo[3.2.1]oct-8-yl)propyl]pyridin-2-yl}-5-oxo-1,5-dihydro-4H-1,2,4-triazol-4-yl]-N-(propan-2-yl)acetamide], with 9.26; and `COc1cc(-c2nn(-c3ccc(CN4CCN(C)CC4)cc3)c(=O)n2CC(=O)NC(C)C)ccc1F` [Cd-4, 2-[3-(4-Fluoro-3-methoxyphenyl)-1-{4-[(4-methylpiperazin-1-yl)methyl]phenyl}-5-oxo-1,5-dihydro-4H-1,2,4-triazol-4-yl]-N-(propan-2-yl)acetamide], with 6.06; and `CC(C)NC(=O)Cn1c(-c2ccc(F)c(Cl)c2)nn(-c2ccc(CCN3CCCCC3)cc2)c1=O` [Da-1, 2-[3-(3-Chloro-4-fluorophenyl)-5-oxo-1-{4-[2-(piperidin-1-yl)ethyl]phenyl}-1,5-dihydro-4H-1,2,4-triazol-4-yl]-N-(propan-2-yl)acetamide], with 7.77.
With `CC(C)NC(=O)Cn1c(-c2ccc(F)c(Cl)c2)nn(-c2ccc(CCN3CC4(COC4)C3)cc2)c1=O` [Da-3, 2-[3-(3-Chloro-4-fluorophenyl)-1-{4-[2-(2-oxa-6-azaspiro[3.3]hept-6-yl)ethyl]phenyl}-5-oxo-1,5-dihydro-4H-1,2,4-triazol-4-yl]-N-(propan-2-yl)acetamide], the negative logarithm of the IC50 (pIC50) is 7.49.
Then `CC(C)NC(=O)Cn1c(-c2ccc(F)c(Cl)c2)nn(-c2ccc(CCN3CCCOCC3)cc2)c1=O` [Da-4, 2-[3-(3-Chloro-4-fluorophenyl)-1-{4-[2-(1,4-oxazepan-4-yl)ethyl]phenyl}-5-oxo-1,5-dihydro-4H-1,2,4-triazol-4-yl]-N-(propan-2-yl)acetamide], with 7.92.
The value for `CC(C)NC(=O)Cn1c(-c2ccc(F)c(Cl)c2)nn(-c2ccc(CCN3CCCCC3)cn2)c1=O` [Db-1, 2-[3-(3-Chloro-4-fluorophenyl)-5-oxo-1-{5-[2-(piperidin-1-yl)ethyl]pyridin-2-yl}-1,5-dihydro-4H-1,2,4-triazol-4-yl]-N-(propan-2-yl)acetamide] was 7.80.
The value for `CC(C)NC(=O)Cn1c(-c2ccc(F)c(Cl)c2)nn(-c2ccc(CCN3CCOCC3)cn2)c1=O` [Db-2, 2-[3-(3-Chloro-4-fluorophenyl)-1-{5-[2-(morpholin-4-yl)ethyl]pyridin-2-yl}-5-oxo-1,5-dihydro-4H-1,2,4-triazol-4-yl]-N-(propan-2-yl)acetamide] was 8.15.
The compound `CC(C)NC(=O)Cn1c(-c2ccc(F)c(Cl)c2)nn(-c2ccc(CCN3CC4(COC4)C3)cn2)c1=O` [Db-3, 2-[3-(3-Chloro-4-fluorophenyl)-1-{5-[2-(2-oxa-6-azaspiro[3.3]hept-6-yl)ethyl]pyridin-2-yl}-5-oxo-1,5-dihydro-4H-1,2,4-triazol-4-yl]-N-(propan-2-yl)acetamide] had a negative-log IC50 (pIC50) of 8.00.
Then `CC(C)NC(=O)Cn1c(-c2ccc(F)c(Cl)c2)nn(-c2ccc(CCN3C4CCC3COC4)cn2)c1=O` [Db-4, 2-[3-(3-Chloro-4-fluorophenyl)-1-{5-[2-(3-oxa-8-azabicyclo[3.2.1]oct-8-yl)ethyl]pyridin-2-yl}-5-oxo-1,5-dihydro-4H-1,2,4-triazol-4-yl]-N-(propan-2-yl)acetamide], with 8.54.
Then `CC(C)NC(=O)Cn1c(-c2cccc(C#N)c2)nn(-c2ccc(CCN3CCOCC3)cc2)c1=O` [Ea-2, 2-[3-(3-Cyanophenyl)-1-{4-[2-(morpholin-4-yl)ethyl]phenyl}-5-oxo-1,5-dihydro-4H-1,2,4-triazol-4-yl]-N-(propan-2-yl)acetamide], with 7.32.
Then `CC(C)NC(=O)Cn1c(-c2cccc(F)c2)nn(-c2ccc(CCN3CCOCC3)cc2)c1=O` [Fa-1, 2-[3-(3-Fluorophenyl)-1-{4-[2-(morpholin-4-yl)ethyl]phenyl}-5-oxo-1,5-dihydro-4H-1,2,4-triazol-4-yl]-N-(propan-2-yl)acetamide], with 7.34.
For the compound `CC(C)NC(=O)Cn1c(-c2ccccc2)nn(-c2ccc(CCN3CCOCC3)cc2)c1=O` [Ga-1, 2-(1-{4-[2-(Morpholin-4-yl)ethyl]phenyl}-5-oxo-3-phenyl-1,5-dihydro-4H-1,2,4-triazol-4-yl)-N-(propan-2-yl)acetamide], the negative logarithm of the IC50 (pIC50) was 6.94.
The value for `CC(C)NC(=O)Cn1c(-c2cccc(S(C)(=O)=O)c2)nn(-c2ccc(CCN3CCOCC3)cc2)c1=O` [Ia-1, 2-(3-[3-(Methylsulfonyl)phenyl]-1-{4-[2-(morpholin-4-yl)ethyl]phenyl}-5-oxo-1,5-dihydro-4H-1,2,4-triazol-4-yl)-N-(propan-2-yl)acetamide] was 7.34.
The value for `COc1cccc(-c2nn(-c3ccc(CCN4CCOCC4)cc3)c(=O)n2CC(=O)NC(C)C)n1` [Ja-1, 2-[3-(6-Methoxypyridin-2-yl)-1-{4-[2-(morpholin-4-yl)ethyl]phenyl}-5-oxo-1,5-dihydro-4H-1,2,4-triazol-4-yl]-N-(propan-2-yl)acetamide] was 7.80.
